Assays:
Test in all cases: relative viability (nuclei count vs DMSO), 5 days (fraction); higher = more cells survive
[1] = compound: CN1C=C(C2=CC=CC=C21)/C=C\3/C4=C(C=CC=N4)NC3=O + COc1cc2c(Oc3ccc(NC(=O)C4(C(=O)Nc5ccc(F)cc5)CC4)cc3F)ccnc2cc1OCCCN1CCOCC1 [Foretinib] (partner 0.25 µM)
Outline: (§1)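 Relative viability was taken as the ratio of nuclei in treated wells to nuclei in vehicle wells. Lung cancer cell lines in 1536-well plates received compounds by pin tool one day after seeding, either one drug alone or a fixed anchor-drug dose plus five library-drug doses (not always all listed) in √10 steps. Nuclei were counted on 4× images after 5 days of treatment, and values are medians of duplicate plates.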

[2] = compound: CN1C=C(C2=CC=CC=C21)/C=C\3/C4=C(C=CC=N4)NC3=O + Cc1cc(Nc2cc(N3CCN(C)CC3)nc(Sc3ccc(NC(=O)C4CC4)cc3)n2)n[nH]1 [Tozasertib] (partner 0.1 µM)
Outline: as §1

[3] = compound: CN1C=C(C2=CC=CC=C21)/C=C\3/C4=C(C=CC=N4)NC3=O + O=C(c1cc(Cc2n[nH]c(=O)c3ccccc23)ccc1F)N1CCN(C(=O)C2CC2)CC1 [Olaparib] (partner 8 µM)
Outline: as §1

[4] = compound: CN1C=C(C2=CC=CC=C21)/C=C\3/C4=C(C=CC=N4)NC3=O + CS(=O)(=O)N1CCN(Cc2cc3nc(-c4cccc5[nH]ncc45)nc(N4CCOCC4)c3s2)CC1 [Pictilisib] (partner 1 µM)
Outline: as §1

Cell Line | relative viability ([1]; first compound 0.02 µM) | relative viability ([1]; first compound 0.06325 µM) | relative viability ([1]; first compound 0.2 µM) | relative viability ([1]; first compound 0.6325 µM) | relative viability ([1]; first compound 2 µM) | relative viability ([2]; first compound 0.02 µM) | relative viability ([2]; first compound 0.06325 µM) | relative viability ([2]; first compound 0.2 µM) | relative viability ([2]; first compound 0.6325 µM) | relative viability ([2]; first compound 2 µM) | relative viability ([3]; first compound 0.02 µM) | relative viability ([3]; first compound 0.06325 µM) | relative viability ([3]; first compound 0.2 µM) | relative viability ([3]; first compound 0.6325 µM) | relative viability ([3]; first compound 2 µM) | relative viability ([4]; first compound 0.02 µM) | relative viability ([4]; first compound 0.06325 µM) | relative viability ([4]; first compound 0.2 µM) | relative viability ([4]; first compound 0.6325 µM) | relative viability ([4]; first compound 2 µM)
EMC-BAC-2 | 1.04 | 0.996 | 1.01 | 1.06 | 1.08 | 0.315 | 0.295 | 0.301 | 0.281 | 0.374 | 0.354 | 0.445 | 0.488 | 0.418 | 0.383 | 0.499 | 0.521 | 0.524 | 0.521 | 0.554
ChaGo-K-1 | 0.921 | 0.911 | 0.828 | 0.861 | 0.918 | 0.194 | 0.221 | 0.212 | 0.214 | 0.201 | 0.426 | 0.405 | 0.414 | 0.387 | 0.339 | 0.607 | 0.62 |  | 0.403 | 0.571
NCI-H2023 | 0.841 | 0.837 |  | 0.924 | 0.746 | 0.282 | 0.267 | 0.352 | 0.249 | 0.237 | 0.451 | 0.53 | 0.566 | 0.432 | 0.517 | 0.258 | 0.17 | 0.128 | 0.193 | 0.181
EKVX | 0.877 | 0.842 | 0.806 | 0.662 | 0.773 | 0.297 | 0.422 | 0.402 | 0.355 | 0.38 | 0.892 |  |  | 0.8 | 0.717 | 0.374 | 0.384 | 0.334 | 0.345 | 0.361
NCI-H2085 | 1.1 | 0.843 | 0.998 | 1.02 | 1.02 | 0.803 | 0.734 | 0.797 | 0.622 | 0.575 | 0.806 | 0.75 | 0.86 | 0.857 | 0.847 | 0.307 | 0.427 | 0.39 | 0.458 | 0.534
NCI-H3122 | 0.857 | 0.941 | 0.907 | 1.06 | 1.04 | 0.37 | 0.343 |  | 0.398 | 0.49 | 0.621 | 0.578 | 0.653 | 0.681 | 0.652 | 0.597 | 0.541 | 0.5 | 0.563 | 0.632
HCC-827 | 0.851 | 1.01 |  | 1.18 | 0.893 | 0.378 | 0.405 |  | 0.53 | 0.395 | 0.624 | 0.61 |  | 0.638 | 0.764 | 1.07 | 0.996 |  | 0.772 | 1
HARA | 0.94 | 0.68 |  | 0.818 | 0.848 | 0.0897 | 0.112 |  | 0.0723 | 0.0941 | 0.247 | 0.747 |  | 0.726 | 0.794 | 0.55 | 0.391 | 0.407 | 0.254 | 0.379
NCI-H441 | 0.943 | 0.772 | 0.967 | 1.02 | 0.984 | 0.67 | 0.607 | 0.651 | 0.572 | 0.567 | 0.52 | 0.47 | 0.611 | 0.405 | 0.588 | 0.477 | 0.426 | 0.474 | 0.402 | 0.595

Source: the supplement of paper PMC10307832
